From patent US20240415918A1, “Polypeptide and its use as a CCK receptor agonist/antagonist” (Centre for Regenerative Medicine & Health, Hong Kong …, priority 2021, published 2024)

Biological target: T1, CCK-B receptors (CHO-CCK) (Homo sapiens, UniProt P32239)
T1 construct: expressed in transfected cells; host or cells: CHO (CHO-CCK model cells)
T1 sequence (P32239 1-447): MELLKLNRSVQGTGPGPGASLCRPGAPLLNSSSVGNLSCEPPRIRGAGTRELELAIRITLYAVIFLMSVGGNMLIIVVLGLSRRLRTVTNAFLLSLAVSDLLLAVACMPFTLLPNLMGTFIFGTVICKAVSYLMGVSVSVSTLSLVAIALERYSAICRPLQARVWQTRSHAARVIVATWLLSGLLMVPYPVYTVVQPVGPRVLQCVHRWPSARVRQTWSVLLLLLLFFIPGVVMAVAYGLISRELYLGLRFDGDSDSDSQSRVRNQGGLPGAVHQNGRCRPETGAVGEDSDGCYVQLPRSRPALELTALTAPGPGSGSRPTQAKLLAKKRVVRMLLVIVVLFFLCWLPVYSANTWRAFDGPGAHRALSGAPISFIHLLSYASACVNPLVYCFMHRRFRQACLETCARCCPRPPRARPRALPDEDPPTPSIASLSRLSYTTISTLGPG
Experiment: Calcium flux (Fluo-8) agonist test on CHO-CCK model cells
Format: cell-based
Details: compound at 10 μM; percentage of signal of 20 nM CCK8 alone
Experimental: • To detect changes in intracellular calcium ion concentration after the compound acts on model cells containing CCK-B receptors (CHO-CCK).
• 1. The compound was formulated to a 10 mM mother liquor with DMSO, and then diluted into a series of 9 concentrations with a 3-fold gradient to form a 1000× stock solution.
2.1 Agonist • The compound stock solution was subjected to 200-fold dilution with HHBS buffer to form a 5× working solution.
• 1. Plate CHO-CCK cells in a 96-well plate with media containing 1% FBS, 30,000 cells/well/100 μL, and incubate overnight at 37° C. • 2. Prepare 1×Fluo-8 analysis buffer: mix 9 mL of HHBS, 1 mL of 10× Pluronic F127 Plus and 20 μL of Fluo-8 thoroughly for later use. • 3. Add Fluo-8 dye working solution to the cell plate, 100 μL/well. First incubate in a 37° C. incubator for 30 min, and then take it out and incubate at room temperature in the dark for 30 min. • 4. In the process of incubating cells, the compounds to be detected were prepared with HHBS. • 5.
The agonism/antagonism EC50 of the compound can be obtained by plotting the fitting curve with the agonism/antagonism percentage as Y-axis and the concentration of the compound as X-axis.

Row | Structure (SMILES) | Agonistic Activity (%) at 10 μM
1 | COC(=O)C[C@H](NC(=O)[C@H](CCSC)NC(=O)[C@H](N)Cc1c[nH]c2ccccc12)C(=O)N[C@@H](Cc1ccccc1[N+](=O)[O-])C(N)=O [HT-75, D-Trp-Met-Asp(Ome)-Phe(2-NO2)-NH2] | −0.20%
2 | COC(=O)C[C@H](NC(=O)[C@H](CCSC)NC(=O)[C@H](N)Cc1c[nH]c2ccccc12)C(=O)N[C@@H](Cc1ccccc1F)C(N)=O [HT-76, D-Trp-Met-Asp(Ome)-Phe(2-F)-NH2] | 23.09%
3 | COC(=O)C[C@H](NC(=O)[C@H](CCSC)NC(=O)[C@H](N)Cc1c[nH]c2ccccc12)C(=O)N[C@@H](Cc1cccc(Cl)c1)C(N)=O [HT-77, D-Trp-Met-Asp(Ome)-Phe(3-Cl)-NH2] | 1.83%
4 | COC(=O)C[C@H](NC(=O)[C@H](CCSC)NC(=O)[C@H](N)Cc1c[nH]c2ccccc12)C(=O)N[C@@H](Cc1ccc(C)cc1)C(N)=O [HT-81, D-Trp-Met-Asp(Ome)-Phe(4-Me)-NH2] | 12.27%
5 | COC(=O)C[C@H](NC(=O)[C@H](CCSC)NC(=O)[C@H](N)Cc1c[nH]c2ccccc12)C(=O)N[C@@H](Cc1ccc(N=[N+]=[N-])cc1)C(N)=O [HT-82, D-Trp-Met-Asp(Ome)-Phe(4-N3)-NH2] | 12.78%
6 | COC(=O)C[C@H](NC(=O)[C@H](CCSC)NC(=O)[C@H](N)Cc1c[nH]c2ccccc12)C(=O)N[C@@H](Cc1ccc(C#N)cc1)C(N)=O [HT-83, D-Trp-Met-Asp(Ome)-Phe(4-CN)-NH2] | 1.91%
7 | COC(=O)C[C@H](NC(=O)[C@H](CCSC)NC(=O)[C@H](N)Cc1c[nH]c2ccccc12)C(=O)N[C@@H](Cc1ccc([N+](=O)[O-])cc1)C(N)=O [HT-84, D-Trp-Met-Asp(Ome)-Phe(4-NO2)-NH2] | 3.24%
8 | COC(=O)C[C@H](NC(=O)[C@H](CCSC)NC(=O)[C@H](N)Cc1c[nH]c2ccccc12)C(=O)N[C@@H](Cc1ccc(Br)cc1)C(N)=O [HT-85, D-Trp-Met-Asp(Ome)-Phe(4-Br)-NH2] | 7.32%
9 | COC(=O)C[C@H](NC(=O)[C@H](CCSC)NC(=O)[C@H](N)Cc1c[nH]c2ccccc12)C(=O)N[C@@H](Cc1ccc(Cl)cc1)C(N)=O [HT-86, D-Trp-Met-Asp(Ome)-Phe(4-Cl)-NH2] | −0.94%
10 | COC(=O)C[C@H](NC(=O)[C@H](CCSC)NC(=O)[C@H](N)Cc1c[nH]c2ccccc12)C(=O)N[C@@H](Cc1ccc(I)cc1)C(N)=O [HT-88, D-Trp-Met-Asp(Ome)-Phe(4-I)-NH2] | −4.64%
11 | COC(=O)C[C@H](NC(=O)[C@H](CCSC)NC(=O)[C@H](N)Cc1c[nH]c2ccccc12)C(=O)N[C@@H](Cc1cc(F)c(F)c(F)c1)C(N)=O [HT-91, D-Trp-Met-Asp(Ome)-Phe(3,4,5-TriF)-NH2] | 3.12%
12 | CSCC[C@H](NC(=O)[C@H](N)Cc1c[nH]c2ccccc12)C(=O)N[C@@H](CC(=O)OCCNc1cccc2c(O)cccc12)C(=O)N[C@@H](Cc1ccc(Cl)cc1)C(N)=O [HT-103, D-Trp-Met-Asp(EDANS)-Phe(4-Cl)-NH2] | 1.03%
13 | COC(=O)C[C@H](NC(=O)[C@H](CC[S+](C)[O-])NC(=O)[C@H](N)Cc1c[nH]c2ccccc12)C(=O)N[C@@H](Cc1ccccc1[N+](=O)[O-])C(N)=O (stereo partly drawn) [HT-109, D-Trp-Met(O)-Asp(Ome)-Phe(2-NO2)-NH2] | 3.33%
14 | COC(=O)C[C@H](NC(=O)[C@H](CC[S+](C)[O-])NC(=O)[C@H](N)Cc1c[nH]c2ccccc12)C(=O)N[C@@H](Cc1ccccc1F)C(N)=O (stereo partly drawn) [HT-110, D-Trp-Met(O)-Asp(Ome)-Phe(2-F)-NH2] | 1.36%
15 | COC(=O)C[C@H](NC(=O)[C@H](CC[S+](C)[O-])NC(=O)[C@H](N)Cc1c[nH]c2ccccc12)C(=O)N[C@@H](Cc1ccc(C)cc1)C(N)=O (stereo partly drawn) [HT-115, D-Trp-Met(O)-Asp(Ome)-Phe(4-Me)-NH2] | 9.82%
16 | COC(=O)C[C@H](NC(=O)[C@H](CC[S+](C)[O-])NC(=O)[C@H](N)Cc1c[nH]c2ccccc12)C(=O)N[C@@H](Cc1ccc(N=[N+]=[N-])cc1)C(N)=O (stereo partly drawn) [HT-116, D-Trp-Met(O)-Asp(Ome)-Phe(4-N3)-NH2] | 10.90%
17 | COC(=O)C[C@H](NC(=O)[C@H](CC[S+](C)[O-])NC(=O)[C@H](N)Cc1c[nH]c2ccccc12)C(=O)N[C@@H](Cc1ccc(C#N)cc1)C(N)=O (stereo partly drawn) [HT-117, D-Trp-Met(O)-Asp(Ome)-Phe(4-CN)-NH2] | 9.81%
18 | COC(=O)C[C@H](NC(=O)[C@H](CC[S+](C)[O-])NC(=O)[C@H](N)Cc1c[nH]c2ccccc12)C(=O)N[C@@H](Cc1ccc([N+](=O)[O-])cc1)C(N)=O (stereo partly drawn) [HT-118, D-Trp-Met(O)-Asp(Ome)-Phe(4-NO2)-NH2] | 0.13%
19 | COC(=O)C[C@H](NC(=O)[C@H](CC[S+](C)[O-])NC(=O)[C@H](N)Cc1c[nH]c2ccccc12)C(=O)N[C@@H](Cc1ccc(Br)cc1)C(N)=O (stereo partly drawn) [HT-119, D-Trp-Met(O)-Asp(Ome)-Phe(4-Br)-NH2] | 6.93%

More lines, now with the values ahead:

Row | Agonistic Activity (%) at 10 μM | Structure (SMILES)
20 | −7.28% | COC(=O)C[C@H](NC(=O)[C@H](CC[S+](C)[O-])NC(=O)[C@H](N)Cc1c[nH]c2ccccc12)C(=O)N[C@@H](Cc1cccc(Cl)c1)C(N)=O (stereo partly drawn) [HT-111, D-Trp-Met(O)-Asp(Ome)-Phe(3-Cl)-NH2]
21 | 2.89% | COC(=O)C[C@H](NC(=O)[C@H](CC[S+](C)[O-])NC(=O)[C@H](N)Cc1c[nH]c2ccccc12)C(=O)N[C@@H](Cc1cccc(F)c1)C(N)=O (stereo partly drawn) [HT-112, D-Trp-Met(O)-Asp(Ome)-Phe(3-F)-NH2]
22 | 6.21% | COC(=O)C[C@H](NC(=O)[C@H](CC[S+](C)[O-])NC(=O)[C@H](N)Cc1c[nH]c2ccccc12)C(=O)N[C@@H](Cc1cccc(I)c1)C(N)=O (stereo partly drawn) [HT-113, D-Trp-Met(O)-Asp(Ome)-Phe(3-I)-NH2]
23 | −8.48% | COC(=O)C[C@H](NC(=O)[C@H](CC[S+](C)[O-])NC(=O)[C@H](N)Cc1c[nH]c2ccccc12)C(=O)N[C@@H](Cc1cccc(Br)c1)C(N)=O (stereo partly drawn) [HT-114, D-Trp-Met(O)-Asp(Ome)-Phe(3-Br)-NH2]
24 | −1.00% | COC(=O)C[C@H](NC(=O)[C@H](CC[S+](C)[O-])NC(=O)[C@H](N)Cc1c[nH]c2ccccc12)C(=O)N[C@@H](Cc1ccc(Cl)cc1)C(N)=O (stereo partly drawn) [HT-120, D-Trp-Met(O)-Asp(Ome)-Phe(4-Cl)-NH2]
25 | 10.99% | COC(=O)C[C@H](NC(=O)[C@H](CC[S+](C)[O-])NC(=O)[C@H](N)Cc1c[nH]c2ccccc12)C(=O)N[C@@H](Cc1ccc(F)cc1)C(N)=O (stereo partly drawn) [HT-121, D-Trp-Met(O)-Asp(Ome)-Phe(4-F)-NH2]
26 | 5.16% | COC(=O)C[C@H](NC(=O)[C@H](CC[S+](C)[O-])NC(=O)[C@H](N)Cc1c[nH]c2ccccc12)C(=O)N[C@@H](Cc1ccc(I)cc1)C(N)=O (stereo partly drawn) [HT-122, D-Trp-Met(O)-Asp(Ome)-Phe(4-I)-NH2]
27 | 0.84% | COC(=O)C[C@H](NC(=O)[C@H](CC[S+](C)[O-])NC(=O)[C@H](N)Cc1c[nH]c2ccccc12)C(=O)N[C@@H](Cc1cc(Cl)cc(Cl)c1)C(N)=O (stereo partly drawn) [HT-123, D-Trp-Met(O)-Asp(Ome)-Phe(3,5-DiCl)-NH2]
28 | 0.71% | COC(=O)C[C@H](NC(=O)[C@H](CC[S+](C)[O-])NC(=O)[C@H](N)Cc1c[nH]c2ccccc12)C(=O)N[C@@H](Cc1cc(F)cc(F)c1)C(N)=O (stereo partly drawn) [HT-124, D-Trp-Met(O)t-Asp(Ome)-Phe(3,5-DiF)-NH2]
